System: Wildtype (WT) mice fed high-fat chow
Assay: Diet-induced obesity, wildtype mice on high-fat chow, 8 weeks
Assay type: in vivo, mouse
Procedure: Glucose was measured in blood (first drop from tail venipuncture) or serum (5 μl of 1:2 dilution) with an AimStrip Plus glucometer system (Germaine Laboratories, San Antonio, Tex.) and expressed as mg/dl values. Lactate was measured in blood (second drop from tail venipuncture) or serum (5 μl of 1:2 dilution) with a Lactate Plus reader (Nova Biomedical, Waltham, Mass.) and expressed as mM values. Fasting glycemia was measured in mice after 4 hours fasting (7 AM-11 AM). Glucose, insulin and pyruvate tolerance tests were conducted after 4 hours fasting in individual cages immediately after baseline fasting glucose monitoring. Mice were injected with either 1 g/kg glucose (#D8375-1 g; Millipore Sigma, St Louis, Mo.), or 0.5 U/kg insulin (#12585014; Thermo Fisher, Waltham, Mass.), or 2.5 g/kg pyruvate (#P5280-25 g; Millipore Sigma, St Louis, Mo.) in 200 μl intraperitoneal injections, and glucose was then monitored by tail venipuncture at 10 min, 20 min, 30 min, 60 min, 120 min after injection. All glucose and pyruvate tolerance tests were conducted blinded to treatment groups.
MRI scan. Magnetic resonance imaging (MRI) scans to determine fat and lean mass ratios (% of total body weight) were conducted in non-anesthetized, non-fasted mice at 2 PM using the EchoMRI-100H Whole Body Composition analyzer (EchoMRI, Houston, Tex.). Mice were weighed immediately prior to MRI scan. Before each measurement session, system was calibrated using the standard internal calibrator tube (canola oil). Mice were typically scanned in sample tubes dedicated to mice comprised between 20 g and 40 g body mass. Data were collected through built-in software EchoMRI version 140320. Data were analyzed when hydration ratio >85%. MRI scans were conducted blinded to treatment groups.
Muscle function, whole-body plethysmography, echocardiography. Forelimb grip strength was monitored using a meter (Cat #1027SM; Columbus Instruments, Columbus, Ohio) blinded to treatment groups. Animals performed ten pulls with 5 seconds rest on a flat surface between pulls. Immediately before sacrifice, in situ tetanic force from tibialis anterior muscle was measured using a Whole Mouse Test System (Cat #1300A; Aurora Scientific, Aurora, ON, Canada) with a 1N dual-action lever arm force transducer (3000-LR, Aurora Scientific, Aurora, ON, Canada) in anesthetized animals (0.8 I/min of 1.5% isoflurane in 100% O2). Tetanic isometric contraction was induced with following specifications: initial delay, 0.1 sec; frequency, 200 Hz; pulse width, 0.5 msec; duration, 0.5 sec; using 100 mA stimulation (Quattrocelli et al., 2015). Length was adjusted to a fixed baseline of 50 mN resting tension for all muscles/conditions. Fatigue analysis was conducted by repeating tetanic contractions every 10 seconds until complete exhaustion of the muscle (50 cycles). Time of contraction was assessed as time to max tetanic value within the 0.0-0.5 sec range of each tetanic contraction, while time of relaxation was assessed as time to 90% min tetanic value within the 0.5-0.8 sec range of every tetanus. […] Data was recorded for a total of 15 minutes broken into 3 consecutive 5-minute periods. […] Cardiac function was assessed by echocardiography, which was conducted under anesthesia (0.8 L/min of 1.5% vaporized isoflurane in 100% O2) on mice between 2 and 5 days before sacrifice. […]

## C[C@]12C=CC(=O)C=C1CC[C@@H]1[C@@H]2C(=O)C[C@@]2(C)[C@H]1CC[C@]2(O)C(=O)CO [prednisone, Prednisone]
Weekly prednisone
  gain of hyperglycemia (fasting blood glucose over time): reduced
  lean mass retention: improved
Weekly prednisone 1 mg/kg i.p., vs vehicle
  gain of body weight and fat mass: slightly but significantly reduced
Weekly prednisone, endpoint
  body-wide glucose homeostasis (glucose and insulin tolerance tests): improved
  grip strength, tetanic force production and aerobic exercise capacity: improved
